Experimental data published in publication PMC8232551 (RSC Chemical Biology, 2020).
Peptide text beside a SMILES is read from it. * marks the point of attachment. Cbz = O=C(OCc1ccccc1)*

Tests used:
HEK-293 cells = experiment: Apoptosis assay in HEK-293 cells; assay type: cell-based; details: HEK-293 non-cancer derived cells, 10 μM
HeLa cells = experiment: Live-cell confocal imaging of uptake of fluorescein-labelled peptides; assay type: cell-based; details: 1000 nM

| Compound | induction of apoptosis (HEK-293 cells) | uptake into live HeLa cells (HeLa cells) |
| --- | --- | --- |
| CC(C)C[C@@H](C=O)NC(=O)[C@H](CC(C)C)NC(=O)[C@H](CC(C)C)NC(=O)OCc1ccccc1 [MG132] (Cbz-Leu-Leu-Leu-aldehyde) | did induce apoptosis | – |
| O=C1OC2(c3ccc(O)cc3Oc3cc(O)ccc32)c2ccccc21 [fluorescein] | – | negligible uptake |
